Laboratory results taken from patent publication US10813981B2, “Saposin B binds the lipofuscin bisretinoid A2E and prevents its enzymatic and photo degradation” (Syracuse University, priority 2017, dated 2020).
Numbering of substitutions follows the chain as printed. pKd: −log10 of the molar value.

Columns and labels:
SapB [1] = molecular target: T1, SapB (Homo sapiens, UniProt P07602); assay: Fluorescence quenching titration of SapB with ligand (double logarithmic Stern-Volmer analysis); format: binding; settings: 40 μM SapB, 50 mM phosphate buffer pH 5.5, average of three runs; for Kd: read-out: LogKA of binding by SapB (converted)
T1 construct: made in house; host or cells: E. coli
T1 sequence (P07602 195-273 limits assumed): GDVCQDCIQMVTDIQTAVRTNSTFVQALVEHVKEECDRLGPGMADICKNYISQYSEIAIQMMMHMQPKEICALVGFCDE
Description: A2E and SapB were prepared and purified according to literature reports. To determine the A2E/protein binding stoichiometry, a fluorescence titration was carried out by incrementally adding small amounts of A2E to a solution of SapB (FIG. 2). […] A double logarithmic plot of
Fluorescence quenching measurements were performed on a Varian Cary Eclipse fluorimeter equipped with a QNW Peltier temperature controller. The experiments were conducted at 25.00±0.01° C. in 50 mM phosphate buffer, pH 5.50 or 7.40 using 278 nm excitation wavelength for sapB emission spectra at 325 nm (FIG. 2) or 444 nm excitation for A2E emission at 602 nm (FIG. 3) with excitation and emission monochromators bandwidth of 5 nm each. The fluorescence quenching data were analyzed using OriginLab software version 8.
The interaction of SapB (prepared as described above) with a variety of ligands was followed by monitoring the quenching of the fluorescence intensities of the protein's tyrosine residues upon binding (FIG. 12 Panels a-f).
For each ligand tested 40 μM SapB in 50 mM phosphate buffer at pH 5.5 was titrated with ligand and quenching was monitored at the fluorescence maxima at 330 nm. […] All of the fluorescence data were analyzed by a double logarithmic Stern-Volmer plot, shown for all ligands, using the emission maxima to determine binding affinity, presented in Table 3, and using the following equation
Materials and Methods—Saposin B (SapB) was prepared and purified as described above. Briefly, SapB solutions in this study were prepared in 50 mM phosphate buffer, pH 5.5. […] Ligand solutions were prepared in 100% dimethylformamide (DMF) to a concentration of 2 mM, with the exception of hydoxychloroquine (HCQ), which was prepared in 50 mM phosphate buffer, pH 5.5. […] 4.2. Fluorescence Spectroscopy. Fluorescence quenching measurements were performed on a Varian Cary Eclipse fluorimeter equipped with a QNW Peltier temperature controller. The binding experiments were conducted at 25.00±0.01° C. in 50 mM phosphate buffer, pH 5.5, using 278 nm excitation wavelength for SapB emission spectra at 330 nm (FIG. 1a-f) with excitation and emission monochromators bandwidth of 5 nm each. Temperature sensitive binding experiments were performed between 20.00±0.01 and 40.00±0.01° C. using 278 nm excitation wavelength for SapB emission spectra at 331 nm, with excitation and emission monochromators bandwidth of 5 nm each. The fluorescence quenching data were analyzed using OriginLab software version 8.

SapB [2] = molecular target: T1, SapB; assay: Temperature dependent fluorescence binding assay, SapB with ATO; settings: 25° C.; read-out: KA at 25° C., SapB-ATO
Description: Isothermal titration calorimetry has shown that [SapB-ATO]complex formation has a larger enthalpic contribution than [SapB-CQ]complex and [SapB-CoQ10]complex. Thus, the shift in binding affinity between [SapB-ATO]complex and [[…]-ATO]complex binding may be due to a shift in the thermodynamics of binding. In order to test this, temperature dependent fluorescence studies were performed with […] and ATO, as well as with SapB and ATO. Fluorescence titration experiments were carried out at five different temperatures for each of the […]-ATO and SapB-ATO experiments (FIG. 14). At each temperature, protein was prepared in phosphate buffer solution and ATO was then added via titration. The quenching of SapB or […] fluorescence was monitored at 330 nm and the KA was calculated via double logarithmic Stern-Volmer analysis. The best-fit plot of InKeq vs. 1/T, where was used to calculate the standard enthalpy, entropy, and Gibb's Free energy of binding for the formation of [[…]-ATO]complex and Materials and Methods-Saposin B (SapB) was prepared and purified as described above. […] Fluorescence Spectroscopy. Fluorescence quenching measurements were performed on a Varian Cary Eclipse fluorimeter equipped with a QNW Peltier temperature controller. […] The fluorescence quenching data were analyzed using OriginLab software version 8.

SapB mutant E69A = molecular target: T2, SapB mutant E69A (Homo sapiens, UniProt P07602, E263A); assay: Fluorescence binding assay (Stern-Volmer and temperature dependent), E69A with ATO; settings: 25° C.; read-out: KA at 25° C., E69A-ATO
T2 construct: is a product of the post-translational cleavage of prosaposin, along with SapA, SapC, and SapD
T2 sequence (P07602 195-273 E263A): T1 sequence (P07602 195-273 limits assumed) with E69A
Description: The deviation observed for [SapB-ATO]complex from the trend warranted further investigation. In order to examine this deviation, a previously described SapB mutant […] (denoted as […] from here on) was used. Fluorescence studies were performed with […] and ATO as described herein for wild type SapB. […] Isothermal titration calorimetry has shown that [SapB-ATO]complex formation has a larger enthalpic contribution than [SapB-CQ]complex and [SapB-CoQ10]complex. Thus, the shift in binding affinity between [SapB-ATO]complex and [[…]-ATO]complex binding may be due to a shift in the thermodynamics of binding. In order to test this, temperature dependent fluorescence studies were performed with […] and ATO, as well as with SapB and ATO. Fluorescence titration experiments were carried out at five different temperatures for each of the […]-ATO and SapB-ATO experiments (FIG. 14). At each temperature, protein was prepared in phosphate buffer solution and ATO was then added via titration. The quenching of SapB or […] fluorescence was monitored at 330 nm and the KA was calculated via double logarithmic Stern-Volmer analysis. […] Fluorescence Spectroscopy. Fluorescence quenching measurements were performed on a Varian Cary Eclipse fluorimeter equipped with a QNW Peltier temperature controller. […] The fluorescence quenching data were analyzed using OriginLab software version 8.

[3] = molecular target: T3, pre-formed [SapB-Ligand]complex (Homo sapiens, UniProt P07602); assay: Competition / order of addition fluorescence binding with pre-formed SapB complexes; settings: A2E fluorescence at 602 nm, excitation 444 nm, pH 5.5
T3 construct: is a product of the post-translational cleavage of prosaposin, along with SapA, SapC, and SapD; made in house; host or cells: E. coli
T3 sequence (P07602 195-273 limits assumed): T1 sequence (P07602 195-273 limits assumed)
Description: We have reported in an earlier study the binding properties of SapB to CoQ10 (a bone fide substrate). To determine whether it binds to the same binding site on the protein or displaces A2E from SapB, a series of fluorescence titration experiments in the presence and absence of CoQ10 were performed.
An 800 μL, 20 μM SapB to 10 μM CoQ10 complex was made in pH 5.5 50 mM phosphate buffer. The complex was formed at room temperature in a 1 mL glass vial with gentle stirring for 10 minutes. The entire solution was then transferred to a clear fluorescence cuvette. Fluorescence experiments were performed under emission conditions on a Cary Eclipse Fluorescence Spectrophotometer, with an excitation wavelength of 444 nm, emission wavelength range of 500-800 nm, excitation slit width set to 10 nm, and emission slit width set to 10 nm. […] Analysis of A2E binding the SapB-CoQ10 complex was performed by tracking fluorescence intensity at A2E's peak emission wavelength of 602 nm and plotting it against the concentration of A2E added per each injection.
A SapB-ATO complex was formed by adding 20 μL of the experimental stock to 1 mL of the SapB experimental stock for a final volume of 1020 μL in a 1.5 mL Eppendorf tube. […] The entire 1020 μL was then transferred to a clear fluorescence cuvette. […]

Row | LogKA of binding by SapB (SapB [1]) | Kd (SapB [1]) | Molecule | other results
1 | 4.618 | – | CC1=C(/C=C/C(C)=C/C=C/C(C)=C/C=C/C=C(C)/C=C/C=C(\C)C=O)C(C)(C)CCC1 [Apocarotenal, apo-carotenal] | –
2 | – | 0.0288 µM | O=C1C(O)=C([C@H]2CC[C@H](c3ccc(Cl)cc3)CC2)C(=O)c2ccccc21 [Atovaquone, atovaquone] | pKd (SapB [2]): 6.95; pKd (SapB mutant E69A): 4.23
3 | – | 70.1 µM | CCN(CC)CCCC(C)Nc1ccnc2cc(Cl)ccc12 (stereo not drawn) [Chloroquine, chloroquine] | –
4 | 5.103 | – | COC1=C(OC)C(=O)C(C/C=C(\C)CC/C=C(\C)CC/C=C(\C)CCC=C(C)C)=C(C)C1=O [Coenzyme Q4] | –
5 | 6.196 | – | COC1=C(OC)C(=O)C(C/C=C(\C)CC/C=C(\C)CC/C=C(\C)CC/C=C(\C)CC/C=C(\C)CC/C=C(\C)CC/C=C(\C)CC/C=C(\C)CCC=C(C)C)=C(C)C1=O [Coenzyme Q9] | –
6 | – | 0.0631 µM | COC1=C(OC)C(=O)C(C/C=C(\C)CC/C=C(\C)CC/C=C(\C)CC/C=C(\C)CC/C=C(\C)CC/C=C(\C)CC/C=C(\C)CC/C=C(\C)CC/C=C(\C)CCC=C(C)C)=C(C)C1=O [Coenzyme Q10, coenzyme Q10] | A2E binding on titration into SapB pre-complexed with the ligand [3]: identical fluorescence titration pattern
7 | – | 155 µM | CCN(CCO)CCCC(C)Nc1ccnc2cc(Cl)ccc12 (stereo not drawn) [Hydoxychloroquine, hydroxychloroquine] | –
8 | 6.075 | – | phosphatidyl-choline [Phosphatidylcholine] | –
9 | 5.227 | – | phosphatidylethanolamine | –
